These results are taken from ChEMBL document CHEMBL1132363, “Asymmetric synthesis and antiviral activities of L-carbocyclic 2', 3'-didehydro-2',3'-dideoxy and 2',3'-dideoxy nucleosides” (J Med Chem, 1999).

The nature of assay [1]: The compound was tested in vitro for the anti-HIV activity against peripheral blood mononuclear (PBM)cells. The following applies: Homo sapiens. The class given is functional.
The species entered for assay [2] is Homo sapiens. Nature of the assay: The compound was tested in vitro for the anti-HBV activity against 2.2.15 cells. The class given is functional, cell-based. As to conditions: HepG2 2.2.15.
A further assay deals with Vero. As to the kind of experiment: The compound was tested for the cytotoxicity against Vero cells. The class given is functional, cell-based. As to conditions: Chlorocebus sabaeus.
Assay [3] in a line: The compound was tested for the cytotoxicity against peripheral blood mononuclear (PBM)cells. The class given is functional, cell-based. The following applies: Homo sapiens.
The next assay has as its system CCRF-CEM. As to the kind of experiment: The compound was tested for the cytotoxicity against CEM cells. The following applies: Homo sapiens. Format: functional, cell-based.
The species entered for assay [4] is Homo sapiens. As to the kind of experiment: The compound was tested in vitro for the anti-HBV activity in 2.2.15 cells. The following applies: HepG2 2.2.15. The class given is functional, cell-based.
Assay [5] can be described thus: The compound was tested in vitro for the anti-HIV activity in peripheral blood mononuclear (PBM) cells. The class given is functional. As to conditions: Homo sapiens.
The nature of assay [6]: The compound was tested for the cytotoxicity against peripheral blood mononuclear (PBM) cells. Format: functional, cell-based. As to conditions: Homo sapiens.

Molecules are shown by their SMILES.

In the case of `Nc1nc(O)c2ncn([C@@H]3C=C[C@H](CO)C3)c2n1`, the EC50 (in assay [1]; in the assay listed under Homo sapiens [2]) was greater than 200 µM throughout.

Consider `Cc1cn(C2CCC(CO)C2)c(=O)[nH]c1=O` (stereo not drawn), for which the IC50 is 171 µM with Vero, greater than 100 µM in assay [3] and greater than 100 µM in the assay on CCRF-CEM. Besides, the EC50 is greater than 100 µM in assay [1] and greater than 10 µM in the assay listed under Homo sapiens [2].

As to `O=c1ccn(C2CCC(CO)C2)c(=O)[nH]1` (stereo not drawn), the IC50 (in the assay with Vero; in assay [3]; in the assay on CCRF-CEM) was greater than 100 µM throughout. For the same compound, the EC50 was greater than 100 µM in assay [1] and greater than 10 µM in the assay filed under Homo sapiens [2].

On to `Nc1ncnc2c1ncn2[C@@H]1C=C[C@H](CO)C1`, for which the IC50 (with Vero; in assay [3]; with CCRF-CEM) was greater than 100 µM throughout. Moreover, the EC50 in assay [1] was determined as 2.4 µM; in the assay listed under Homo sapiens [2], 0.9 µM.

On to `OC[C@H]1C=C[C@@H](n2cnc3c(S)ncnc32)C1`, for which the IC50 (with Vero; in the assay on CCRF-CEM; in assay [6]) was greater than 100 µM each time. The EC50 was greater than 10 µM in the assay filed under Homo sapiens [4] and greater than 100 µM in assay [5].

As to `COC1O[C@H]2[C@H](COC(C)(C)C)C[C@H](n3cnc4c(Cl)ncnc43)[C@H]2O1` (stereo partly drawn), the IC50 (in the assay with Vero; in assay [3]; with CCRF-CEM) was greater than 100 µM each time. Moreover, the EC50 in assay [1] is greater than 100 µM; in the assay filed under Homo sapiens [2] it was greater than 10 µM.

In the case of `Nc1ncnc2c1ncn2C1CCC(CO)C1` (stereo not drawn), the IC50 (in the assay on Vero; in assay [3]; in the assay on CCRF-CEM) was greater than 100 µM in each case. Also, the 50% effective concentration (EC50) in assay [1] is 27 µM; in the assay filed under Homo sapiens [2] it was greater than 50 µM.

On to `Nc1ccn([C@@H]2C=C[C@H](CO)C2)c(=O)n1`, for which the IC50 (in the assay on Vero; in assay [3]; in the assay on CCRF-CEM) was greater than 100 µM each time. The figures for the EC50 (in assay [1]; in the assay listed under Homo sapiens [2]) were 38.8 µM and greater than 10 µM, respectively. The compound also yielded an EC90 in assay [1] of 65.9 µM.

Turning to `O=c1ccn([C@@H]2C=C[C@H](CO)C2)c(=O)[nH]1`, the IC50 (in the assay on Vero; in assay [3]; with CCRF-CEM) was greater than 100 µM in each case. For the same compound, the EC50 in assay [1] is greater than 100 µM; in the assay filed under Homo sapiens [2] it was greater than 10 µM.

As to `OC[C@H]1C=C[C@@H](n2cnc3c(O)ncnc32)C1`, the IC50 (in the assay with Vero; in assay [3]; in the assay with CCRF-CEM) was greater than 100 µM in each case. Moreover, the EC50 in assay [1] was greater than 100 µM; in the assay listed under Homo sapiens [2] it was greater than 10 µM.

`Cc1cn([C@@H]2C=C[C@H](CO)C2)c(=O)[nH]c1=O`: the IC50 in the assay on Vero is 49.4 µM; in assay [3], 66.6 µM; in the assay on CCRF-CEM, greater than 100 µM. Also, the figures for the EC50 (in assay [1]; in the assay listed under Homo sapiens [2]) were greater than 100 µM and greater than 10 µM, respectively.

Regarding `OC[C@H]1CC[C@@H](n2cnc3c(O)ncnc32)C1`, the IC50 (in the assay on Vero; in assay [3]; in the assay on CCRF-CEM) was greater than 100 µM in each case. In addition, the EC50 in the assay listed under Homo sapiens [4] is greater than 10 µM; in assay [5], greater than 100 µM.

By EC50 is commonly meant the midpoint of the concentration-response curve. High values mean a less potent agent, low ones a more potent agent. In general, IC50 refers to the point on the concentration scale where inhibition reaches its midpoint. A high value points to weaker potency. The term EC90 denotes the concentration at which the effect reaches the 90% level. Read a low EC90 as an effect from little substance.
